Data as given in patent EP0414533A1, “Use of iodopropargyl esters of alpha-amino acid derivatives as antimicrobial agents” (ROHM AND HAAS COMPANY, priority 1989, dated 1991).
Converted amounts (≈) assume the structure as drawn. Like-named read-outs stand apart in the source and are kept apart here.

Experiments:
[1] = test system: Botrytis cinerea (BOC); experiment: In-vitro plant fungicide test; format: cell-based; details: Botrytis cinerea; for inhibition of growth at 0.2 ppm: .2 ppm; for inhibition of growth at 0.4 ppm: .4 ppm; for inhibition of growth at 0.8 ppm: .8 ppm
[2] = test system: Phytophthora capsici (PHY); experiment: In-vitro plant fungicide test; format: cell-based; details: Phytophthora capsici; for inhibition of growth at 0.2 ppm: .2 ppm; for inhibition of growth at 0.4 ppm: .4 ppm; for inhibition of growth at 0.8 ppm: .8 ppm
[3] = test system: Pseudomonas fluorescens (PSFL); experiment: Minimum inhibitory concentration (MIC), broth two-fold serial dilution test; details: Pseudomonas fluorescens, IIIB, read-out: MIC (G-) PSFL, trypticase soy broth (complex media); Table IIIb
[4] = test system: CER; experiment: In-vitro plant fungicide test; format: cell-based; details: Table IVb, read-out: % Control at (ppm) indicated CER; for inhibition of growth at 0.2 ppm: .2 ppm; for inhibition of growth at 0.4 ppm: .4 ppm; for inhibition of growth at 0.8 ppm: .8 ppm
[5] = test system: Piricularia oryzae (PIR); experiment: microbe, parasite or virus in culture; format: cell-based; details: for inhibition of growth at 0.2 ppm: .2 ppm; for inhibition of growth at 0.4 ppm: .4 ppm; for inhibition of growth at 0.8 ppm: .8 ppm
[6] = test system: COL; experiment: In-vitro plant fungicide test; format: cell-based; details: Table IVb, read-out: % Control at (ppm) indicated COL; for inhibition of growth at 0.2 ppm: .2 ppm; for inhibition of growth at 0.4 ppm: .4 ppm; for inhibition of growth at 0.8 ppm: .8 ppm
[7] = test system: Fusarium roseum (FUS); experiment: In-vitro plant fungicide test; format: cell-based; details: Fusarium sambucinum; for inhibition of growth at 1.5 ppm: read-out: % Control at (ppm) indicated FUS, 1.5 ppm; for inhibition of growth at 3 ppm: read-out: % Control at (ppm) indicated FUS, 3 ppm; for inhibition of growth at 6 ppm: read-out: % Control at (ppm) indicated FUS, 6 ppm; for inhibition of growth at 12 ppm: read-out: % Control at (ppm) indicated FUS, 12 ppm; for inhibition of growth at 0.2 ppm: read-out: % Control at (ppm) indicated FUS, .2 ppm; for inhibition of growth at 0.4 ppm: read-out: % Control at (ppm) indicated FUS, .4 ppm; for inhibition of growth at 0.8 ppm: read-out: % Control at (ppm) indicated FUS, .8 ppm
[8] = test system: 7 FUNGI; experiment: Microbicides broad spectrum secondary test against 7 fungi (Table V); format: cell-based; parameters: key: 1= no growth; 0= growth of the indicated fungi at dose indicated in ppm; details: Mycophile agar, pH 5.0; for ANIG growth: Aspergillus niger; for APUL growth: Aureobasidium pullulans; for CRES growth: Cladosporium resinae; for GTRA growth: Gloeophyllum trabeum; for PFUN growth: Penicillium funiculosum; for RRUB growth: Rhodotorula rubra; for SSER growth: Sacharomyces cerevisiae
Procedure: In the case of fungi, the spores are harvested by pipetting water onto the slant and dislodging the spores with a sterile loop. The cell/spore suspension is standardized by controlling incubation time, temperature, and the volume of the diluent. The suspension is then used to inoculate the vessels containing the broth compound. […] The results of the minimum inhibitory concentration (MIC) tests of compounds of this invention are shown in Tables IIIa IIIb, IIIc, V, VI, VII, and VIII against the microorganisms shown in Table IX. [table]

[9] = Table IVb, read-out: % Control at (ppm) indicated BOC
[10] = Table IVa, *=Phytotoxic, read-out: % Control at 25 ppm BOC
[11] = Table IVb, read-out: % Control at (ppm) indicated PHY
[12] = Table IVa, read-out: % Control at 25 ppm PHY
[13] = read-out: % Control at (ppm) indicated PIR
[14] = 25 ppm, read-out: % Control at (ppm) indicated PIR
[15] = read-out: % Control at 25 ppm PIR
[16] = read-out: % Control at 25 ppm FUS, 25 ppm, Table IVa, *=Phytotoxic
[17] = read-out: % Control at (ppm) indicated FUS, 25 ppm, Table IVb

O=C(CN1C(=O)c2ccccc2C1=O)OCC#CI [Compound 30, N-phthaloylglycine iodopropargyl ester]
inhibition of growth at 1.5 ppm [1, 9]: 0%
inhibition of growth at 6 ppm [1, 9]: 0%
inhibition of growth at 25 ppm [1, 10]: 100%
inhibition of growth at 25 ppm [1, 9]: 90%
inhibition of growth at 0.2 ppm [1, 9]: 0%
inhibition of growth at 0.4 ppm [1, 9]: 0%
inhibition of growth at 0.8 ppm [1, 9]: 0%
inhibition of growth at 1.5 ppm [2, 11]: 100%
inhibition of growth at 6 ppm [2, 11]: 100%
inhibition of growth at 25 ppm [2, 12]: 100%
inhibition of growth at 25 ppm [2, 11]: 100%
inhibition of growth at 0.2 ppm [2, 11]: 0%
inhibition of growth at 0.4 ppm [2, 11]: 0%
inhibition of growth at 0.8 ppm [2, 11]: 0%
MIC [3]: > 250 µg/mL
inhibition of growth at 1.5 ppm [4]: 0%
inhibition of growth at 25 ppm [4]: 100%
inhibition of growth at 0.2 ppm [4]: 0%
inhibition of growth at 0.4 ppm [4]: 0%
inhibition of growth at 0.8 ppm [4]: 0%
inhibition of growth at 1.5 ppm [5, 13]: 100%
inhibition of growth at 6 ppm [5, 13]: 100%
inhibition of growth at 25 ppm [5, 14]: 100%
inhibition of growth at 0.2 ppm [5, 13]: 0%
inhibition of growth at 0.4 ppm [5, 13]: 0%
inhibition of growth at 0.8 ppm [5, 13]: 100%
inhibition of growth at 25 ppm [5, 15]: 100%
inhibition of growth at 1.5 ppm [6]: 0%
inhibition of growth at 3 ppm [6]: 0%
inhibition of growth at 6 ppm [6]: 50%
inhibition of growth at 12 ppm [6]: 100%
inhibition of growth at 25 ppm [6]: 100%
inhibition of growth at 0.2 ppm [6]: 0%
inhibition of growth at 0.4 ppm [6]: 0%
inhibition of growth at 0.8 ppm [6]: 0%
inhibition of growth at 25 ppm [7, 16]: 100%
inhibition of growth at 1.5 ppm ([7]; Table IVb): 0%
inhibition of growth at 3 ppm ([7]; Table IVb): 100%
inhibition of growth at 6 ppm ([7]; Table IVb): 100%
inhibition of growth at 12 ppm ([7]; Table IVb): 100%
inhibition of growth at 25 ppm [7, 17]: 100%
inhibition of growth at 0.2 ppm ([7]; Table IVb): 0%
inhibition of growth at 0.4 ppm ([7]; Table IVb): 0%
inhibition of growth at 0.8 ppm ([7]; Table IVb): 0%

O=C(CNC(=O)c1ccccc1)OCC#CI [Compound 29, N-benzoylglycine iodopropargyl ester]
inhibition of growth at 25 ppm [1, 10]: 100%
inhibition of growth at 25 ppm [2, 12]: 100%
MIC [3]: 32 µg/mL (≈ 93.3 µM)
inhibition of growth at 25 ppm [5, 15]: 100%
inhibition of growth at 25 ppm [7, 16]: 100%
ANIG growth ([8]; 0.2 PPM): 0
ANIG growth ([8]; 1 PPM): 0
ANIG growth ([8]; 5 PPM): 1
ANIG growth ([8]; 25 PPM): 1
APUL growth ([8]; 0.2 PPM): 0
APUL growth ([8]; 1 PPM): 0
APUL growth ([8]; 5 PPM): 1
APUL growth ([8]; 25 PPM): 1
CRES growth ([8]; 0.2 PPM): 0
CRES growth ([8]; 1 PPM): 0
CRES growth ([8]; 5 PPM): 1
CRES growth ([8]; 25 PPM): 1
GTRA growth ([8]; 0.2 PPM): 1
GTRA growth ([8]; 1 PPM): 1
GTRA growth ([8]; 5 PPM): 1
GTRA growth ([8]; 25 PPM): 1
PFUN growth ([8]; 0.2 PPM): 0
PFUN growth ([8]; 1 PPM): 0
PFUN growth ([8]; 5 PPM): 1
PFUN growth ([8]; 25 PPM): 1
RRUB growth ([8]; 0.2 PPM): 0
RRUB growth ([8]; 1 PPM): 0
RRUB growth ([8]; 5 PPM): 1
RRUB growth ([8]; 25 PPM): 1
SSER growth ([8]; 0.2 PPM): 0
SSER growth ([8]; 1 PPM): 0
SSER growth ([8]; 5 PPM): 1
SSER growth ([8]; 25 PPM): 1

CC(C)(C)OC(=O)NCC(=O)OCC#CI [Compound 1, N-t-butoxycarbonylglycine iodopropargyl ester]
inhibition of growth at 1.5 ppm [1, 9]: 0%
inhibition of growth at 6 ppm [1, 9]: 0%
inhibition of growth at 25 ppm [1, 10]: 100%
inhibition of growth at 25 ppm [1, 9]: 100%
inhibition of growth at 0.2 ppm [1, 9]: 0%
inhibition of growth at 0.4 ppm [1, 9]: 0%
inhibition of growth at 0.8 ppm [1, 9]: 0%
inhibition of growth at 1.5 ppm [2, 11]: 50%
inhibition of growth at 6 ppm [2, 11]: 100%
inhibition of growth at 25 ppm [2, 12]: 100%
inhibition of growth at 25 ppm [2, 11]: 100%
inhibition of growth at 0.2 ppm [2, 11]: 0%
inhibition of growth at 0.4 ppm [2, 11]: 0%
inhibition of growth at 0.8 ppm [2, 11]: 0%
inhibition of growth at 1.5 ppm [4]: 0%
inhibition of growth at 6 ppm ([4]; 6 ppm): 100%
inhibition of growth at 25 ppm [4]: 100%
inhibition of growth at 0.2 ppm [4]: 0%
inhibition of growth at 0.4 ppm [4]: 0%
inhibition of growth at 0.8 ppm [4]: 0%
inhibition of growth at 1.5 ppm [5, 13]: 50%
inhibition of growth at 6 ppm [5, 13]: 100%
inhibition of growth at 25 ppm [5, 14]: 100%
inhibition of growth at 0.2 ppm [5, 13]: 0%
inhibition of growth at 0.4 ppm [5, 13]: 0%
inhibition of growth at 0.8 ppm [5, 13]: 0%
inhibition of growth at 25 ppm [5, 15]: 100%
inhibition of growth at 1.5 ppm [6]: 0%
inhibition of growth at 3 ppm [6]: 0%
inhibition of growth at 6 ppm [6]: 0%
inhibition of growth at 12 ppm [6]: 95%
inhibition of growth at 25 ppm [6]: 95%
inhibition of growth at 0.2 ppm [6]: 0%
inhibition of growth at 0.4 ppm [6]: 0%
inhibition of growth at 0.8 ppm [6]: 0%
inhibition of growth at 25 ppm [7, 16]: 100%
inhibition of growth at 1.5 ppm ([7]; Table IVb): 0%
inhibition of growth at 3 ppm ([7]; Table IVb): 75%
inhibition of growth at 6 ppm ([7]; Table IVb): 100%
inhibition of growth at 12 ppm ([7]; Table IVb): 100%
inhibition of growth at 25 ppm [7, 17]: 100%
inhibition of growth at 0.2 ppm ([7]; Table IVb): 0%
inhibition of growth at 0.4 ppm ([7]; Table IVb): 0%
inhibition of growth at 0.8 ppm ([7]; Table IVb): 0%
ANIG growth ([8]; 0.2 PPM): 0
ANIG growth ([8]; 1 PPM): 0
ANIG growth ([8]; 5 PPM): 1
ANIG growth ([8]; 25 PPM): 1
APUL growth ([8]; 0.2 PPM): 0
APUL growth ([8]; 1 PPM): 0
APUL growth ([8]; 5 PPM): 0
APUL growth ([8]; 25 PPM): 1
CRES growth ([8]; 0.2 PPM): 0
CRES growth ([8]; 1 PPM): 0
CRES growth ([8]; 5 PPM): 0
CRES growth ([8]; 25 PPM): 1
GTRA growth ([8]; 0.2 PPM): 0
GTRA growth ([8]; 1 PPM): 1
GTRA growth ([8]; 5 PPM): 1
GTRA growth ([8]; 25 PPM): 1
PFUN growth ([8]; 0.2 PPM): 0
PFUN growth ([8]; 1 PPM): 0
PFUN growth ([8]; 5 PPM): 0
PFUN growth ([8]; 25 PPM): 1
RRUB growth ([8]; 0.2 PPM): 0
RRUB growth ([8]; 1 PPM): 0
RRUB growth ([8]; 5 PPM): 0
RRUB growth ([8]; 25 PPM): 1
SSER growth ([8]; 0.2 PPM): 0
SSER growth ([8]; 1 PPM): 0
SSER growth ([8]; 5 PPM): 0
SSER growth ([8]; 25 PPM): 1
